Data taken from patent US20260014129A1, “MITOCHONDRIAL PYRUVATE METABOLISM INHIBITORS FOR TREATING CHRONIC MYELOID LEUKEMIA” (The University Court of the University of Glasgow, priority 2022, published 2026).

Experiments:
[1] = test system: T1, FBS (Bos taurus); details: as previously reported (ref 44); cited from earlier work
T1 construct: host or cells: FBS in culture medium

[2] = test system: CML CD34+ cells; test: Patient-derived xenograft of CML CD34+ cells in NRG-W41 mice, bone marrow flow cytometry; type: in vivo, human
Procedure: Treatment was given for 4 weeks. For treatment with asciminib (ABL001) plus MSDC-0160, twelve weeks following transplant, drug treatment was started with both asciminib (Fisher Scientific Cat #1642956) dosed at 10 mg/kg/day (5 mg/kg BID); oral gavage and MSDC-0160 (Apex Biotechnology: Cat #B3702) dosed at 30 mg/kg; oral gavage once daily. Treatment was given for 4 weeks. At the respective endpoints, bone marrow cells were collected. This was done by placing inverted cut leg bones into 0.5 mL Eppendorf tubes with holes at bottom. These in turn were placed within 1.5 mL Eppendorf tubes containing PBS, centrifuged (12,000 RCF, 20 seconds). Cells were stained (300 μl/test) with anti-mouse (APC-Cy7 BD Biosciences: Cat #557659, RRID: AB_396774, 1 μl), anti-human CD45 (FITC; BD Biosciences: Cat #555482, RRID: AB_395874, 10 μl), anti-human CD34 (APC; BD Biosciences: Cat #555824, RRID: AB_398614, 2 μl) and anti-human CD38 (PerCP; BioLegend: Cat #303520, RRID: AB_893313, 2 μl) antibodies for flow cytometry analysis as described above.

[3] = test system: phospho-AMPK; test: Western blot of AMPK and phospho-AMPK in CD34+ CML cells; type: cell-based, human; details: imatinib-treated patient samples, 24 hours
Procedure: Cells were lysed in RIPA buffer containing mini-Complete protease inhibitor cocktail and phosphatase inhibitors (both Roche). Total protein concentration was quantified using a Pierce BCA kit (Thermo Fisher Scientific: 23227). Equal amounts of protein (5-7.5 μg) were heated at 95° C. for 5 min and separated (120V) in 4-12% gels (Novex) for SDS-PAGE. Proteins were transferred onto PDVF membranes (Thermo Fisher Scientific: 21882) then blocked in 2% BSA (in Tris-buffered saline, 0.01% Tween (TBS-T)) for one hour. Next, membranes were incubated overnight at 4° C. with the primary antibodies. The membranes were rinsed three times with TBS-T, then incubated with secondary HRP-linked antibodies (1:10,000) for 1 hour at room temperature. The SuperSignal West Femto Maxi detection system was used (Thermo Fisher Scientific: 34095) and imaging was carried out using a LI-COR Odyssey Fc gel-doc system.

[4] = test system: CML CD34+ cells; test: RNA-seq differential gene expression and GSEA of imatinib-treated CML CD34+ cells; type: cell-based, human; details: imatinib 2 μM, 48 hours
Procedure: RNA was extracted from 200,000 CML CD34+ cells using an RNA easy mini kit (Qiagen) according to the manufacturer's instructions.
Libraries were prepared using the Illumina TruSeq Stranded mRNA LT Kit (Illumina) and run on the Illumina Next Seq 500 using the High Output 75 cycles kit (2×36 cycles, paired end reads, single index; Illumina). FastQ files were generated using Illumina's bcl2fastq (v. 2.20.0.422).
QC, alignment, and parsing of files into count matrices was performed in command line, with subsequent differential gene expression (DGE) analysis performed in R (1.2.1335). Adapter trimming was performed using Scythe (version 0.981), and Sickle (version 0.940), was used to trim bases with quality scores of less than 20. Prior to and after this pre-processing fastqc (version 0.11.2) was run to ascertain sequence quality, alongside the efficacy of the pre-processing steps. Trimmed reads were indexed and aligned using Hisat2 (version 2.1.0). Hisat2 indexes (GRCh38 genome_tran) were obtained from the John Hopkins Center for Computational Biology, 2020. Samtools (version 0.1.19044428cd) view was used to convert the resulting .sam to .bam files, whilst samtools sort was used to sort the .bam files. Assembly was achieved through the use of stringtie (John Hopkins Center for Computational Biology, 2020), with output .gtf files converted to count matrices using the python script prepDE.py (stringtie version 1.3.3b.Linux_x86_64). Reads were assembled using an annotated reference human genome (GRCh38.p13), obtained from GENCODE (GENECODE, 2020). DESeq2 (version 1.26.0) was used to generate results sets from the gene and transcript count matrices. G genes with read counts too low to allow for the calculation of p and adjusted p-values (padj: Benjamini-Hochberg) were removed from the data sets leaving gene and transcript counts of sizes 16,069 and 45,218 respectively.
GSEA (version 4.1) was conducted on pre-ranked lists (ranked by pi score calculated by multiplying LOG fold change by −LOG (corrected p-value)).

[5] = combination of imatinib and MSDC-0160, 4 weeks

T1 sequence (P02769 25-607): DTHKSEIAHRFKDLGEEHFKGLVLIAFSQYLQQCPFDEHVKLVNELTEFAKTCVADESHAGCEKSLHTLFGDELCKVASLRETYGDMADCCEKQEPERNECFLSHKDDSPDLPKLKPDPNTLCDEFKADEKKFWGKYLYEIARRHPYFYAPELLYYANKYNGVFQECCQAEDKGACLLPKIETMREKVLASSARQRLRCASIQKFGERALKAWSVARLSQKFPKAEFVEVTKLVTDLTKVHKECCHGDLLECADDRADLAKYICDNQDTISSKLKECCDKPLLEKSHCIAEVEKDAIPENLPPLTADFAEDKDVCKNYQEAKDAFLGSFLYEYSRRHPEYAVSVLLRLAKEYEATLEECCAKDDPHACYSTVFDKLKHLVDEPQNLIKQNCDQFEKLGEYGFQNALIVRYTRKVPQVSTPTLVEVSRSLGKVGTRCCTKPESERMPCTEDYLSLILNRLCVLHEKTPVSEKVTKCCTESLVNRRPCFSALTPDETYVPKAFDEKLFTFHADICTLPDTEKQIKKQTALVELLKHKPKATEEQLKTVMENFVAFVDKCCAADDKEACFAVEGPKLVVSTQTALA

Row | SMILES | binding to FBS [1] | percentage of human CML LSCs, MSDC-0160 on its own ([2]; MSDC-0160 30 mg/kg once daily, 4 weeks, 12 weeks engraftment) | percentage of human CML LSCs, combination with ABL-001 ([2]; MSDC-0160 30 mg/kg plus ABL-001 10 mg/kg/day, 4 weeks) | total numbers of CML CD45+CD34+CD38- cells (LSC) ([2]; combination of ABL-001 and MSDC-0160 30 mg/kg, 4 weeks) | reduction in percentage of human CD45+ leukocytes and total number of bone marrow CD45+ cells ([2]; combination of imatinib 50 mg/kg BID and MSDC-0160 30 mg/kg/day, 4 weeks) | percentage and absolute number of human CML LSCs (CD34+CD38-) [2, 5] | relative and total reduction of CD34+ cells versus vehicle or imatinib arms [2, 5] | AMPK and phospho-AMPK protein levels [3] | most downregulated pathways in GSEA ([4]; Hallmark gene sets) | PC transcript level ([4]; paired transcriptomic data) | PDH transcript level ([4]; paired transcriptomic data)
1 | CCc1ccc(C(=O)COc2ccc(CC3SC(=O)NC3=O)cc2)nc1 (centres unmarked) [MSDC-0160] | high FBS binding | reduction in the percentage of human CML LSCs | reduction in the percentage of human CML LSCs | did not reduce the total numbers | did not reach statistical significance | marked reduction in both the percentage and absolute number | did not reach statistical significance | – | – | – | –
2 | Cc1ccc(NC(=O)c2ccc(CN3CCN(C)CC3)cc2)cc1Nc1nccc(-c2cccnc2)n1 [imatinib] | – | – | – | – | – | – | – | variable depending on patient sample | oxidative phosphorylation, glycolysis, and fatty acid oxidation | no change | downregulation
